Assay type in all cases: cell-based
One experiment concerns fresh morning saliva. The experiment in a line: In-vitro test for reducing bad breath (liquid medium inoculated with fresh morning saliva, smelt by a test panel). The note with it: for formation of bad breath / smell after incubation: 0.1%. On the procedure:
This test is based on the work of Goldberg and Rosenberg (Production of Oral Malodor in an in vitro System, S. Goldberg and M. Rosenberg, pp. 143-150, in: Bad Breath—A multidisciplinary Approach, Eds: D. van Steenberghe, M. Rosenberg, Leuven University Press, 1996) and was adapted for the purposes of better reproducibility.
A sterile liquid medium that is inoculated with fresh morning saliva is incubated for a few days at 37° C. and then smelt by a test panel.
An intensive typical smell of bad breath had formed. Non-inoculated controls only have a weak to moderate smell of bad breath.
Triclosan® in a concentration of 0.05% was added as control for the tests.
The minimum effective concentrations of various compounds of the Formula 1 or of the Formula 1A at which no smell could be detected are shown hereinafter: […]

The next experiment concerns Aspergillus niger. Kind of experiment: Effect against germs not connected with bad breath. The note with it: 1,000 ppm.
Another experiment relates to Candida albicans. Kind of experiment: Effect against germs not connected with bad breath. The note with it: 1,000 ppm.
The test system of another experiment is Escherichia coli. The experiment in a line: Effect against germs not connected with bad breath. The note with it: 1,000 ppm.
The next experiment has as its system Prevotella intermedia. Kind of experiment: Minimal inhibiting concentration, series dilution test. The procedure: (§1) The minimal inhibiting concentration (MIC) was determined by way of example for 2-(benzoylamino) benzoic acid (Compound 27) in a series dilution test against various germs found in the mouth.
Another experiment deals with Fusobacterium nucleatum. The experiment is described as above. The procedure: as §1
The test system of the next experiment is Veillonella parvula. The experiment is described as above. The note with it: bactericide. On the procedure: as §1
Another experiment deals with Staphylococcus aureus. The experiment is described as above. The note with it: bactericide. On the procedure: as §1
Setting [1] is: medium inoculated with fresh morning saliva, incubated a few days at 37° C., test panel.

≈ marks a conversion by molar mass, not a printed value.

`O=C(/C=C/c1ccc(O)c(O)c1)Nc1ccccc1C(=O)O` [Compound 2, 2-{[(2E)-3-(3,4-dihydroxyphenyl)prop-2-enoyl]amino}benzoic acid]: the “minimum effective concentration at which no smell could be detected” value with fresh morning saliva (setting [1]) is listed as 0.005%.
For the molecule `O=C(/C=C/c1ccc(O)c(O)c1)Nc1ccc(O)cc1C(=O)O` [Compound 3, 5-hydroxy-2-{[(2E)-3-(3,4-dihydroxyphenyl)prop-2-enoyl]amino}benzoic acid], the “minimum effective concentration at which no smell could be detected” value in the experiment with fresh morning saliva (setting [1]) is 0.0025%.
`COc1cc(/C=C/C(=O)Nc2ccc(O)cc2C(=O)O)ccc1O` [Compound 4, 5-hydroxy-2-{[(2E)-3-(4-hydroxy-3-methoxyphenyl)prop-2-enoyl]amino}benzoic acid]: the “minimum effective concentration at which no smell could be detected” value is 0.01% in the experiment on fresh morning saliva (setting [1]) and “(=100 ppm)” with fresh morning saliva (same value given in ppm).
For `O=C(/C=C/c1ccc(O)cc1)Nc1ccc(O)cc1C(=O)O` [Compound 7, 5-hydroxy-2-{[(2E)-3-(4-hydroxyphenyl)prop-2-enoyl]amino}benzoic acid] the same measures were 0.005% and “(=50 ppm)”.
As for `O=C(CCc1ccc(O)cc1)Nc1ccccc1C(=O)O` [Compound 8, 2-{[3-(4-hydroxyphenyl)propanoyl]amino}benzoic acid], the “minimum effective concentration at which no smell could be detected” value in the experiment with fresh morning saliva (setting [1]) was 0.005%.
On the same count and under the same terms, then `COc1cc(/C=C/C(=O)Nc2ccccc2C(=O)O)ccc1O` [Compound 9, 2-{[(2E)-3-(4-hydroxy-3-methoxyphenyl)prop-2-enoyl]amino}benzoic acid], with 0.005%.
For the molecule `O=C(/C=C/c1ccc(O)cc1)Nc1ccccc1C(=O)O` [Compound 10, 2-{[(2E)-3-(4-hydroxyphenyl)prop-2-enoyl]amino}benzoic acid], the “effect against the germ” value with Aspergillus niger, with Candida albicans and with Escherichia coli was “did not have any effect” throughout. Besides, the “minimum effective concentration at which no smell could be detected” value in the experiment on fresh morning saliva (setting [1]) is on record as 0.0025%; in the experiment with fresh morning saliva (same value given in ppm) it was “(=25 ppm)”.
As to `O=C(/C=C/c1ccccc1)Nc1ccc(O)cc1C(=O)O` [Compound 12, 5-Hydroxy-2-{[(2E)-3-phenylprop-2-enoyl]amino}benzoic acid], the “minimum effective concentration at which no smell could be detected” value with fresh morning saliva (setting [1]) worked out at 0.0025%.
On the same count and under the same terms, to `COc1ccc(/C=C/C(=O)Nc2ccc(O)cc2C(=O)O)cc1OC` [Compound 13, 5-Hydroxy-2-{[(2E)-3-(3,4-dimethoxyphenyl)prop-2-enoyl]amino}benzoic acid] belongs 0.01%.
The same measure, in the same setting: then `O=C(Nc1ccccc1C(=O)O)c1ccc(O)c(O)c1` [Compound 20, 2-[(3,4-dihydroxybenzoyl)amino]benzoic acid], with 0.005%; and `COc1ccc(C(=O)Nc2ccccc2C(=O)O)cc1O` [Compound 23, 2-[(3-hydroxy-4-methoxybenzoyl)amino]benzoic acid], with 0.0025%.
On the same count and under the same terms, then `O=C(Nc1ccccc1C(=O)O)c1ccc(O)cc1` [Compound 24, 2-[(4-hydroxybenzoyl)amino]benzoic acid], with 0.001%; and `COc1cc(C(=O)Nc2ccccc2C(=O)O)ccc1O` [Compound 25, 2-[(4-hydroxy-3-methoxybenzoyl)amino]benzoic acid], with 0.001%; and `O=C(Nc1ccccc1C(=O)O)c1ccc(O)cc1O` [Compound 26, 2-[(2,4-dihydroxybenzoyl)amino]benzoic acid], with 0.0025%.
On to `O=C(Nc1ccccc1C(=O)O)c1ccccc1` [Compound 27, 2-(benzoylamino)-benzoic acid], for which the smell after incubation result in the experiment on fresh morning saliva (0.001 wt. %) is “a non unpleasant smell could be detected, which did not bear any resemblance to bad breath”; in the experiment on fresh morning saliva (0.0025 wt. %) it was “no smell”. The “minimum effective concentration at which no smell could be detected” value in the experiment on fresh morning saliva (setting [1]) worked out at 0.0025%. Moreover, the MIC stood at 1000 mg/L (≈ 4150 µM) in the experiment with Prevotella intermedia (bactericide); 500 mg/L (≈ 2070 µM) against Prevotella intermedia (bacteriostatic); 1000 mg/L (≈ 4150 µM) in the experiment on Fusobacterium nucleatum (bactericide); 500 mg/L (≈ 2070 µM) in the experiment with Fusobacterium nucleatum (bacteriostatic); 250 mg/L (≈ 1040 µM) in the experiment on Veillonella parvula; 500 mg/L (≈ 2070 µM) in the experiment on Staphylococcus aureus.
Take `O=C(Nc1ccccc1C(=O)O)c1cccc(O)c1` [Compound 28, 2-[(3-hydroxybenozyl)amino]benzoic acid]: the entries for the “minimum effective concentration at which no smell could be detected” value in the experiment on fresh morning saliva (setting [1]) and in the experiment with fresh morning saliva (same value given in ppm) were 0.0005% and “(=5 ppm)”, respectively.
`O=C(Nc1ccccc1C(=O)O)c1ccccc1O` [Compound 29, 2-[(2-hydroxybenzoyl)amino]benzoic acid]: in the experiment with fresh morning saliva (setting [1]), the “minimum effective concentration at which no smell could be detected” value was 0.0025%.
The same measure, in the same setting: then `O=C(Nc1cc(O)ccc1C(=O)O)c1ccc(O)cc1` [Compound 75, 4-hydroxy-2-[(4-hydroxybenzoyl]amino}benzoic acid], with 0.01%; and `O=C(Nc1ccccc1)c1ccccc1O` [Compound 100, Salicylanilide], with 0.0025%; and `COc1ccc(/C=C/C(=O)Nc2ccccc2C(=O)O)cc1` [Compound 101, 2-{[(2E)-3-(4-methoxyphenyl)prop-2-enoyl]amino}benzoic acid], with 0.0025%.
For `O=C(/C=C/c1ccccc1)Nc1ccccc1C(=O)O` [Compound 102, 2-{[(2E)-3-phenylprop-2-enoyl]amino}benzoic acid], the “minimum effective concentration at which no smell could be detected” value in the experiment with fresh morning saliva (setting [1]) is reported as 0.001%; with fresh morning saliva (same value given in ppm), “(=10 ppm)”.
With `Oc1cc(Cl)ccc1Oc1ccc(Cl)cc1Cl` [Triclosan, reference compound], the smell after incubation entry with fresh morning saliva (0.05%, control) was “the same smell as the non-inoculated flasks”.
`C=CCc1ccc(O)c(OC)c1` [eugenol, reference compound]: the “formation of bad breath / smell after incubation” value in the experiment with fresh morning saliva is “suppressed the formation of bad breath”.
Same read-out and setting: then `Cc1ccc(C(C)C)c(O)c1` [thymol, reference compound], with “suppressed the formation of bad breath”.

Broadly, the MIC is the lowest concentration that inhibits growth of the organism. A lower MIC goes with inhibition by little substance.

(Values after patent publication US20080008660A1, “Antimicrobially active compounds for treating bad breath” (Symrise GmbH & Co. KG, priority 2006, published 2008).)
